{"source": "paper PMC2827632", "about": "(Biochemistry, 2010)", "molecules": {"B1": {"name": "Mycobacterium tuberculosis lipoamide dehydrogenase (Lpd), residues 1-464 (enzyme)", "chain": "MTHYDVVVLGAGPGGYVAAIRAAQLGLSTAIVEPKYWGGVCLNVGCIPSKALLRNAELVHIFTKDAKAFGISGEVTFDYGIAYDRSRKVAEGRVAGVHFLMKKNKITEIHGYGTFADANTLLVDLNDGGTESVTFDNAIIATGSSTRLVPGTSLSANVVTYEEQILSRELPKSIIIAGAGAIGMEFGYVLKNYGVDVTIVEFLPRALPNEDADVSKEIEKQFKKLGVTILTATKVESIADGGSQVTVTVTKDGVAQELKAEKVLQAIGFAPNVEGYGLDKAGVALTDRKAIGVDDYMRTNVGHIYAIGDVNGLLQLAHVAEAQGVVAAETIAGAETLTLGDHRMLPRATFCQPNVASFGLTEQQARNEGYDVVVAKFPFTANAKAHGVGDPSGFVKLVADAKHGELLGGHLVGHDVAELLPELTLAQRWDLTASELARNVHTHPTMSEALQECFHGLVGHMINF"}}, "key": {"human Lpd [1]": {"biological_target": "T1, human Lpd (Homo sapiens, UniProt P09622)", "T1 sequence (P09622 36-509)": "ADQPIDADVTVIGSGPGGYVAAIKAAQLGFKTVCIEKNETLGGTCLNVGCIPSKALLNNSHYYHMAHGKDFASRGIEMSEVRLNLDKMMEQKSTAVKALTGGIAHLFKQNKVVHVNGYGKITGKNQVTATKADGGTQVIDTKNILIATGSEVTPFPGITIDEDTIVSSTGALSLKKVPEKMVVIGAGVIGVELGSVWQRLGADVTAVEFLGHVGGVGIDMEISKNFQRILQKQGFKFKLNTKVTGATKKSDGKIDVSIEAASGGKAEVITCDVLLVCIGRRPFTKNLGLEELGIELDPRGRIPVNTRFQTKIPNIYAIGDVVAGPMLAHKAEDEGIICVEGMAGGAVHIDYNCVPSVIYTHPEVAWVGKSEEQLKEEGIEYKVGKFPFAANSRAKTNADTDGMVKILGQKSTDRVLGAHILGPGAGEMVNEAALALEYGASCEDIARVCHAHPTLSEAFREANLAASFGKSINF", "assay": "Human Lpd DTNB assay", "format": "biochemical", "details": "for Inhibition of human Lpd (words): concentrations up to 100 μM"}, "[2]": {"biological_target": "T2, bovine thioredoxin reductase (Bos taurus, UniProt O62768)", "T2 sequence (O62768 1-499)": "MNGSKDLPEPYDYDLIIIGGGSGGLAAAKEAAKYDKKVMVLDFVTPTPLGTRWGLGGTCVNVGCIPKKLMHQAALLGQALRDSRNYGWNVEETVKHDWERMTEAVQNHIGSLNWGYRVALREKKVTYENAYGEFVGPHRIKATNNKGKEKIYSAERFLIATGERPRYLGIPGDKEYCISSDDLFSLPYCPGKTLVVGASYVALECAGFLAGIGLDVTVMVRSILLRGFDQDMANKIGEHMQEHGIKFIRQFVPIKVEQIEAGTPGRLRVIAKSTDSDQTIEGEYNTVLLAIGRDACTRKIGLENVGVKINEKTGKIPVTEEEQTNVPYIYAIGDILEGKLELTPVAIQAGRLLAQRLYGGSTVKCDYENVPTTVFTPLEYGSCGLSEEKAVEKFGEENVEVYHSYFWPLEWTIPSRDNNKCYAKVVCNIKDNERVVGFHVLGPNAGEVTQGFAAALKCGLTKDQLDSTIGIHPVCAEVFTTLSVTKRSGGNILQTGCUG", "assay": "Bovine thioredoxin reductase DTNB assay", "format": "biochemical", "details": "for IC50: DTNB assay, 100 μM NADPH"}, "bovine Lpd": {"biological_target": "T3, bovine Lpd (Bos taurus, UniProt F1N206)", "T3 sequence (F1N206 36-509)": "T1 sequence (P09622 36-509) with I35V, Y62F, M65L, D86E, T94N, G135S, M181L, K285Q, P298T", "assay": "Bovine Lpd DTNB assay", "format": "biochemical"}, "porcine PDHC": {"biological_target": "T4, porcine PDHC (Sus scrofa, UniProt P09623)", "T4 sequence (P09623 36-509)": "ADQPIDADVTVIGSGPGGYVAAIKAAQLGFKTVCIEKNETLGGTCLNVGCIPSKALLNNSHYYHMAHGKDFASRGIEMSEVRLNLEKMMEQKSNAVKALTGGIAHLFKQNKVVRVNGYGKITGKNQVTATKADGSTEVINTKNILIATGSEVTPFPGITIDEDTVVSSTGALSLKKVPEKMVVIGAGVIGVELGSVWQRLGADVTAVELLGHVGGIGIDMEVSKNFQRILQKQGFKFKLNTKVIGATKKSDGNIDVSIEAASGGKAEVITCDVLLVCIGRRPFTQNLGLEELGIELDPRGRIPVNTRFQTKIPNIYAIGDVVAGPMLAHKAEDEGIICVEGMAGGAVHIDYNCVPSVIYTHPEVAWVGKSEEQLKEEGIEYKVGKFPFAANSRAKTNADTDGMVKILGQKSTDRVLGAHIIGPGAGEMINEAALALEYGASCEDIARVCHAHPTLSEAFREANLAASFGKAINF", "assay": "Porcine PDHC assay", "format": "biochemical"}, "[3]": {"tested_on": "mouse bone marrow macrophages", "assay": "cells", "format": "cell-based", "details": "for EC50: read-out: BMM EC50 (concentration at which viability is reduced to 50%)"}, "human Lpd [4]": {"biological_target": "T1, human Lpd", "assay": "Human Lpd dihydrolipoamide-NAD+ spectrophotometric assay", "format": "biochemical", "details": "dihydrolipoamide and NAD+ as substrates, up to 100 μM"}, "[5]": {"biological_target": "T5, PDHC activity in Mtb lysates (Mycobacterium tuberculosis, UniProt P9WHH9)", "T5 sequence (P9WHH9 1-464)": "B1 chain", "format": "biochemical"}, "Mtb Lpd [6]": {"biological_target": "T6, Mtb Lpd (Mycobacterium tuberculosis, UniProt P9WHH9)", "T6 sequence (P9WHH9 1-464)": "B1 chain"}, "Mtb Lpd [7]": {"biological_target": "T6, Mtb Lpd", "remark": "listed apart in the source"}, "Mtb PDHC": {"biological_target": "T7, Mtb PDHC (Mycobacterium tuberculosis, UniProt P9WHH9)", "T7 sequence (P9WHH9 1-464)": "B1 chain", "details": "read-out: IC50 Mtb PDHC; PDHC assay"}, "Mtb Lpd [8]": {"biological_target": "T6, Mtb Lpd", "remark": "listed apart in the source"}, "crystal structure": {"biological_target": "the molecule itself", "assay": "crystal structure"}}, "note": "Residue numbers refer to the chain shown, from its start. Like-named read-outs stand apart in the source and are kept apart here.", "data": [{"molecule": "COc1ccc(C(=O)N2CCC3(CC2)C(=O)N(CC(=O)NCc2cccc(C(F)(F)F)c2)CN3c2ccccc2)c(OC)c1", "note": "[compound 4, 2-(8-(2,4-dimethoxybenzoyl)-4-oxo-1-phenyl-1,3,8-triazaspiro[4.5]decan-3-yl)-N-(3-(trifluoromethyl)benzyl) acetamide]", "values": [{"measurement": "Inhibition of human Lpd (words)", "setting": "human Lpd [1]", "result": "did not inhibit"}, {"measurement": "IC50", "setting": "human Lpd [1]; read-out: IC50 hLpd, DTNB assay", "result": "> 100", "unit": "µM"}, {"measurement": "IC50", "setting": "[2]; read-out: IC50 bTR", "result": "> 100", "unit": "µM"}, {"measurement": "IC50", "setting": "bovine Lpd; read-out: IC50 bLpd, DTNB assay", "result": "> 100", "unit": "µM"}, {"measurement": "IC50", "setting": "porcine PDHC; read-out: IC50 pPDHC, PDHC assay", "result": 100, "unit": "µM"}, {"measurement": "EC50", "setting": "[3]", "result": "> 100", "unit": "µM"}, {"measurement": "Inhibition of human Lpd, physiological direction", "setting": "human Lpd [4]", "result": "No inhibition"}, {"measurement": "IC50 for Lpd activity in Mtb extracts measured by inhibition of PDHC activity", "setting": "[5]", "result": "low micromolar range"}, {"measurement": "IC50", "setting": "Mtb Lpd [6]; read-out: IC50 Mtb Lpd + BSA, DTNB assay with 100 μg/ml bovine serum albumin", "result": 2.1, "unit": "µM"}, {"measurement": "IC50", "setting": "Mtb Lpd [6]; read-out: IC50 Mtb Lpd, DTNB assay", "result": 2, "unit": "µM"}, {"measurement": "IC50", "setting": "Mtb Lpd [7]; read-out: IC50 Mtb Lpd NADH-lipoamide, NADH-lipoamide assay", "result": 2, "unit": "µM"}, {"measurement": "IC50", "setting": "Mtb PDHC", "result": 7.2, "unit": "µM"}, {"measurement": "Inhibition of Mtb Lpd in dihydrolipoamide-NAD+ assay", "setting": "Mtb Lpd [8]", "result": "inhibited"}]}, {"molecule": "COc1ccc(C(=O)N2CCC3(CC2)C(=O)N(CC(=O)NCCc2ccc(Cl)cc2Cl)CN3c2ccccc2)c(OC)c1", "note": "[compound 5, N-(2,4-dichlorophenethyl)-2-(8-(2,4-dimethoxybenzoyl)-4-oxo-1-phenyl-1,3,8-triazaspiro[4.5]decan-3-yl)acetamide]", "values": [{"measurement": "IC50", "setting": "human Lpd [1]", "result": "> 100", "unit": "µM"}, {"measurement": "Inhibition of human Lpd (words)", "setting": "human Lpd [1]", "result": "did not produce any measurable inhibition"}, {"measurement": "Inhibition of human Lpd (words)", "setting": "human Lpd [1]; listed as Compound 5", "result": "no inhibition"}, {"measurement": "Inhibition of bovine thioredoxin reductase", "setting": "[2]; Fig. 2C", "result": "minimally inhibits"}, {"measurement": "IC50", "setting": "[2]; IC50 bTR", "result": 20, "unit": "µM"}, {"measurement": "IC50", "setting": "bovine Lpd", "result": 100, "unit": "µM"}, {"measurement": "Inhibition of bovine Lpd", "setting": "bovine Lpd; Fig. 2C", "result": "minimally inhibits"}, {"measurement": "IC50", "setting": "porcine PDHC", "result": 100, "unit": "µM"}, {"measurement": "Inhibition of porcine PDHC", "setting": "porcine PDHC; Fig. 2C", "result": "minimally inhibits"}, {"measurement": "Mouse bone marrow macrophage survival", "setting": "[3]; 100 μM (limit of solubility)", "result": 80, "unit": "%"}, {"measurement": "Toxicity against primary mouse bone marrow macrophages", "setting": "[3]; Fig. 2C", "result": "no toxicity"}, {"measurement": "EC50", "setting": "[3]; Mus musculus, Bone marrow macrophage, 24 h", "result": "> 100", "unit": "µM"}, {"measurement": "Inhibition of human Lpd, physiological direction", "setting": "human Lpd [4]", "result": "No inhibition"}, {"measurement": "Mode of inhibition with respect to NADH", "setting": "Mtb Lpd [7]; variable NADH 3.33 to 100 μM", "result": "noncompetitive"}, {"measurement": "Mode of inhibition with respect to lipoamide", "setting": "Mtb Lpd [7]; variable lipoamide", "result": "noncompetitive"}, {"measurement": "Inhibition of Mtb Lpd in dihydrolipoamide-NAD+ assay", "setting": "Mtb Lpd [8]", "result": "inhibited"}, {"measurement": "Mode of inhibition with respect to NAD+", "setting": "Mtb Lpd [8]; variable NAD+ 25 μM to 2.5 mM", "result": "noncompetitive"}]}, {"molecule": "B1", "values": [{"measurement": "binding result", "setting": "crystal structure", "result": "binds"}]}]}
